{"source": "paper PMC8240349", "about": "(Journal of Traditional and Complementary Medicine, 2021)", "key": {"[1]": {"settings": "rats, cited from earlier work"}, "[2]": {"settings": "cited from earlier work"}, "[3]": {"type": "in vivo, human", "settings": "for AUC0-∞ / CL/F / Cmax / K01 / Vz/F / k10 / t1/2a / t1/2z / tlag / tmax / K10: median (range)"}, "[4]": {"settings": "oral 40 g/kg body weight crude A. rhizoma"}, "[5]": {"settings": "oral 40 g/kg body weight processed A. rhizoma"}, "[6]": {"settings": "group 1, single 1,000 mg AL, all"}, "[7]": {"settings": "group 1, single 1,000 mg AL, female"}, "[8]": {"settings": "group 1, single 1,000 mg AL, male"}, "[9]": {"settings": "group 2, daily 1,000 mg AL, day 1, all"}, "[10]": {"settings": "group 2, daily 1,000 mg AL, day 1, female"}, "[11]": {"settings": "group 2, daily 1,000 mg AL, day 1, male"}, "[12]": {"settings": "group 2, daily 1,000 mg AL, day 21, all"}, "[13]": {"settings": "group 2, daily 1,000 mg AL, day 21, female"}, "[14]": {"settings": "group 2, daily 1,000 mg AL, day 21, male"}}, "note": "Where two headings read alike, the source gives them in different places. Marks after values point to notes of the source that are not given here.", "data": [{"molecule": "C/C=C/C#CC#C/C=C/c1ccco1", "note": "[atractylodin]", "values": [{"measurement": "t1/2z", "setting": "[1]; [4]", "result": 2.38, "unit": "h"}, {"measurement": "time of Cmax", "setting": "[1]; [4]", "result": 2.2, "unit": "h"}, {"measurement": "CL/F", "setting": "[1]; [5]", "result": 42.7, "unit": "mL/min/kg"}, {"measurement": "MRT", "setting": "[1]; [5]", "result": 7.06, "unit": "h"}, {"measurement": "mean Cmax", "setting": "[1]; [5]", "result": "2,299 ng/ml"}, {"measurement": "t1/2z", "setting": "[1]; [5]", "result": 5.13, "unit": "h"}, {"measurement": "tmax", "setting": "[1]; [5]", "result": 0.33, "unit": "h"}, {"measurement": "water solubility", "setting": "[2]", "result": "low water solubility"}, {"measurement": "AUC0-∞", "setting": "[3]; [6]", "result": "105.07 (65.93–168.90) ng.h/ml"}, {"measurement": "CL/F", "setting": "[3]; [6]", "result": "7.28 (4.78–15.62) l/kg/h"}, {"measurement": "Cmax", "setting": "[3]; [6]", "result": "29.1 (17.1–42.51) ng/ml"}, {"measurement": "K01", "setting": "[3]; [6]", "result": "0.68 (0.43–1.00) /h"}, {"measurement": "Vz/F", "setting": "[3]; [6]", "result": "10.18 (6.85–19.53) L/kg"}, {"measurement": "k10", "setting": "[3]; [6]", "result": "0.71 (0.44–1.71) /h"}, {"measurement": "t1/2a", "setting": "[3]; [6]", "result": "0.97 (0.41–1.58) h"}, {"measurement": "t1/2z", "setting": "[3]; [6]", "result": "0.88 (0.37–1.74) h"}, {"measurement": "tlag", "setting": "[3]; [6]", "result": "0.13 (0.0–0.5) h"}, {"measurement": "tmax", "setting": "[3]; [6]", "result": "1.41 (0.94–2.3) h"}, {"measurement": "AUC0-∞", "setting": "[3]; [7]", "result": "108.19 (65.93–186.59) ng.h/ml"}, {"measurement": "CL/F", "setting": "[3]; [7]", "result": "8.06 (4.80–15.62) l/kg/h"}, {"measurement": "Cmax", "setting": "[3]; [7]", "result": "31.04 (19.29–49.21) ng/ml"}, {"measurement": "K01", "setting": "[3]; [7]", "result": "0.75 (0.59–1.48) /h"}, {"measurement": "K10", "setting": "[3]; [7]", "result": "0.76 (0.59–1.16) /h"}, {"measurement": "Vz/F", "setting": "[3]; [7]", "result": "11.81 (5.65–19.53) l/kg"}, {"measurement": "t1/2a", "setting": "[3]; [7]", "result": "0.92 (0.47–1.19) h"}, {"measurement": "t1/2z", "setting": "[3]; [7]", "result": "0.92 (0.47–1.19) h"}, {"measurement": "tlag", "setting": "[3]; [7]", "result": "0.0 (0.0–0.25) h"}, {"measurement": "tmax", "setting": "[3]; [7]", "result": "1.33 (0.89–1.70) h"}, {"measurement": "AUC0-∞", "setting": "[3]; [8]", "result": "118.85 (74.25–189.98) ng.h/ml"}, {"measurement": "CL/F", "setting": "[3]; [8]", "result": "6.35 (3.34–10.33) l/kg/h"}, {"measurement": "Cmax", "setting": "[3]; [8]", "result": "31.05 (17.86–51.36) ng/ml"}, {"measurement": "K01", "setting": "[3]; [8]", "result": "0.68 (0.44–0.95) /h"}, {"measurement": "K10", "setting": "[3]; [8]", "result": "0.67 (0.43–0.96) /h"}, {"measurement": "Vz/F", "setting": "[3]; [8]", "result": "8.41 (5.14–18.70) l/kg"}, {"measurement": "t1/2a", "setting": "[3]; [8]", "result": "1.02 (0.73–1.58) h"}, {"measurement": "t1/2z", "setting": "[3]; [8]", "result": "1.02 (0.73–1.57) h"}, {"measurement": "tlag", "setting": "[3]; [8]", "result": "0.25 (0–0.5) h"}, {"measurement": "tmax", "setting": "[3]; [8]", "result": "1.48 (1.05–2.29) h"}, {"measurement": "AUC0-∞", "setting": "[3]; [9]", "result": "103.7 (16.5–315.4) ng.h/ml"}, {"measurement": "CL/F", "setting": "[3]; [9]", "result": "8.11 (2.73–40.75) l/kg/h"}, {"measurement": "Cmax", "setting": "[3]; [9]", "result": "32.11 (4.9–117.8) ng/ml"}, {"measurement": "K01", "setting": "[3]; [9]", "result": "0.83 (0.43–22.67) /h"}, {"measurement": "Vz/F", "setting": "[3]; [9]", "result": "12.74 (2.687–47.03) L/kg"}, {"measurement": "k10", "setting": "[3]; [9]", "result": "0.71 (0.43–1.25) /h"}, {"measurement": "t1/2a", "setting": "[3]; [9]", "result": "0.84 (0.03–1.63) h"}, {"measurement": "t1/2z", "setting": "[3]; [9]", "result": "0.84 (0.03–1.63) h"}, {"measurement": "tlag", "setting": "[3]; [9]", "result": "0 (0–0.5) h"}, {"measurement": "tmax", "setting": "[3]; [9]", "result": "1.18 (0.17–2.34) h"}, {"measurement": "AUC0-∞", "setting": "[3]; [10]", "result": "130.62 (52.04–315.40) ng.h/ml"}, {"measurement": "CL/F", "setting": "[3]; [10]", "result": "6.50 (2.73–14.76) l/kg/h"}, {"measurement": "Cmax", "setting": "[3]; [10]", "result": "42.26 (8.41–117.80) ng/ml"}, {"measurement": "K01", "setting": "[3]; [10]", "result": "0.96 (0.43–22.67) /h"}, {"measurement": "K10", "setting": "[3]; [10]", "result": "0.63 (0.43–1.19) /h"}, {"measurement": "Vz/F", "setting": "[3]; [10]", "result": "10.09 (2.68–33.56) l/kg"}, {"measurement": "t1/2a", "setting": "[3]; [10]", "result": "0.73 (0.03–1.63) h"}, {"measurement": "t1/2z", "setting": "[3]; [10]", "result": "0.73 (0.03–1.63) h"}, {"measurement": "tmax", "setting": "[3]; [10]", "result": "1.11 (0.17–2.34) h"}, {"measurement": "AUC0-∞", "setting": "[3]; [11]", "result": "91.88 (16.5–109.93) ^b ng.h/ml"}, {"measurement": "CL/F", "setting": "[3]; [11]", "result": "8.75 (5.8–40.75) l/kg/h"}, {"measurement": "Cmax", "setting": "[3]; [11]", "result": "23.77 (4.97–49.75) ^a ng/ml"}, {"measurement": "K01", "setting": "[3]; [11]", "result": "0.78 (0.57–1.89) /h"}, {"measurement": "K10", "setting": "[3]; [11]", "result": "0.72 (0.24–1.25) /h"}, {"measurement": "Vz/F", "setting": "[3]; [11]", "result": "15.52 (6.43–47.03) l/kg"}, {"measurement": "t1/2a", "setting": "[3]; [11]", "result": "0.89 (0.37–1.21) h"}, {"measurement": "t1/2z", "setting": "[3]; [11]", "result": "0.89 (0.37–1.21) h"}, {"measurement": "tlag", "setting": "[3]; [11]", "result": "0.0 (0.0–0.5) h"}, {"measurement": "tmax", "setting": "[3]; [11]", "result": "1.25 (0.81–1.73) h"}, {"measurement": "AUC0-∞", "setting": "[3]; [12]", "result": "123.18 (49.22–419.61) ng.h/ml"}, {"measurement": "CL/F", "setting": "[3]; [12]", "result": "7.10 (1.83–14.67) l/kg/h"}, {"measurement": "Cmax", "setting": "[3]; [12]", "result": "31.84 (9.38–97.64) ng/ml"}, {"measurement": "K01", "setting": "[3]; [12]", "result": "0.74 (0.10–1.92) /h"}, {"measurement": "Vz/F", "setting": "[3]; [12]", "result": "9.66 (0.47–26.32) L/kg"}, {"measurement": "k10", "setting": "[3]; [12]", "result": "0.73 (0.11–15.31) /h"}, {"measurement": "t1/2a", "setting": "[3]; [12]", "result": "0.94 (0.36–6.61) h"}, {"measurement": "t1/2z", "setting": "[3]; [12]", "result": "0.94 (0.05–6.49) h"}, {"measurement": "tlag", "setting": "[3]; [12]", "result": "0 (0–0.5) h"}, {"measurement": "tmax", "setting": "[3]; [12]", "result": "1.32 (0.24–9.44) h"}, {"measurement": "AUC0-∞", "setting": "[3]; [13]", "result": "144.4 (69.1–420.3) ng.h/ml"}, {"measurement": "CL/F", "setting": "[3]; [13]", "result": "5.91 (1.83–11.11) l/kg/h"}, {"measurement": "Cmax", "setting": "[3]; [13]", "result": "39.49 (11.40–91.24) ng/ml"}, {"measurement": "K01", "setting": "[3]; [13]", "result": "0.72 (0.11–1.92) /h"}, {"measurement": "K10", "setting": "[3]; [13]", "result": "0.74 (0.11–15.31) /h"}, {"measurement": "Vz/F", "setting": "[3]; [13]", "result": "8.18 (0.47–25.06) l/kg"}, {"measurement": "t1/2a", "setting": "[3]; [13]", "result": "0.97 (0.36–6.61) h"}, {"measurement": "t1/2z", "setting": "[3]; [13]", "result": "0.94 (0.05–6.49) h"}, {"measurement": "tlag", "setting": "[3]; [13]", "result": "0 (0–0.5) h"}, {"measurement": "tmax", "setting": "[3]; [13]", "result": "1.36 (0.24–9.45) h"}, {"measurement": "AUC0-∞", "setting": "[3]; [14]", "result": "87.18 (49.22–292.77) ^c ng.h/ml"}, {"measurement": "CL/F", "setting": "[3]; [14]", "result": "8.16 (2.70–14.67) ^d l/kg/h"}, {"measurement": "Cmax", "setting": "[3]; [14]", "result": "26.03 (9.39–97.64) ng/ml"}, {"measurement": "K01", "setting": "[3]; [14]", "result": "0.83 (0.52–1.57) /h"}, {"measurement": "K10", "setting": "[3]; [14]", "result": "0.71 (0.42–0.99) /h"}, {"measurement": "Vz/F", "setting": "[3]; [14]", "result": "13.32 (3.05–26.32) l/kg"}, {"measurement": "t1/2a", "setting": "[3]; [14]", "result": "0.84 (0.44–1.34) h"}, {"measurement": "t1/2z", "setting": "[3]; [14]", "result": "0.99 (0.70–1.67) h"}, {"measurement": "tlag", "setting": "[3]; [14]", "result": "0 (0.0–0.0) h"}, {"measurement": "tmax", "setting": "[3]; [14]", "result": "1.24 (1.0–1.94) h"}, {"measurement": "Cmax by model-dependent analysis compared with model-independent analysis", "setting": "[3]; in vivo", "result": "60–70%"}]}]}
